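Protocol summary: plate cells (96-well), add compound at 5 concentrations, incubate 48 h, interpolate endpoints linearly. GI50 marks 50% less growth.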 Activity calls are given as the source filed them. Rule as the data show it: active = GI50 up to about 1.1 µM and inactive = higher.
Key:
Experiment in all cases: growth of human tumour cells (NCI), 48 h
ACHN = tested on: ACHN
HCC 2998 = tested on: HCC 2998
HT-29 = tested on: HT-29
K562 = tested on: K562
KM12 = tested on: KM12
M14 = tested on: M14
OVCAR-5 = tested on: OVCAR-5
OVCAR-8 = tested on: OVCAR-8
SK-MEL-2 = tested on: SK-MEL-2
SK-MEL-5 = tested on: SK-MEL-5
SK-OV-3 = tested on: SK-OV-3
SW-620 = tested on: SW-620
UO-31 = tested on: UO-31
U-251 = tested on: U-251
HOP-92 = tested on: HOP-92

Measured: GI50

CC1(C)OB(O)OC1(C)C
inactive: ACHN > 100 µM | HCC 2998 > 100 µM | HT-29 > 100 µM | K562 > 100 µM | KM12 > 100 µM | M14 > 100 µM | OVCAR-5 > 100 µM | OVCAR-8 > 100 µM | SK-MEL-2 > 100 µM | SK-MEL-5 > 100 µM | SK-OV-3 > 100 µM | SW-620 > 100 µM | UO-31 > 100 µM

CC(=O)OC12c3ccccc3C1CCCCCC21OCCCO1 (stereo not given)
inactive: ACHN > 100 µM | HCC 2998 > 100 µM | HT-29 > 100 µM | K562 > 100 µM | KM12 > 100 µM | M14 > 100 µM | OVCAR-5 > 100 µM | OVCAR-8 > 100 µM | SK-MEL-2 > 100 µM | SK-MEL-5 > 100 µM | SK-OV-3 > 100 µM | U-251 > 100 µM | UO-31 > 100 µM

CCCC(=O)OCC(O)CO (stereo not given)
inactive: ACHN 4830 µM | HOP-92 3080 µM | HT-29 > 5000 µM | K562 4880 µM | KM12 > 5000 µM | M14 > 5000 µM | OVCAR-5 2810 µM | OVCAR-8 2900 µM | SK-MEL-2 3780 µM | SK-MEL-5 4970 µM | SK-OV-3 4970 µM | SW-620 > 5000 µM | U-251 > 5000 µM | UO-31 2860 µM

N#CC(C(=O)/C(=N\NC(N)=O)C(C#N)c1ccc(Cl)cc1)c1ccc(Cl)cc1 (stereo not given)
inactive: ACHN > 100 µM | HOP-92 68.4 µM | HT-29 > 100 µM | K562 > 100 µM | KM12 > 100 µM | M14 > 100 µM | OVCAR-5 > 100 µM | OVCAR-8 > 100 µM | SK-MEL-2 > 100 µM | SK-MEL-5 > 100 µM | SK-OV-3 > 100 µM | SW-620 > 100 µM | U-251 > 100 µM | UO-31 > 100 µM

CCc1cccc(C)c1N1C(=O)C(=O)C(c2nc3ccccc3o2)/C(=N/NC(=S)NN)C1=O (stereo not given)
inactive: ACHN > 100 µM | HOP-92 > 100 µM | HT-29 > 100 µM | K562 > 100 µM | KM12 > 100 µM | M14 > 100 µM | OVCAR-5 > 100 µM | OVCAR-8 > 100 µM | SK-MEL-2 > 100 µM | SK-MEL-5 > 100 µM | SK-OV-3 > 100 µM | SW-620 > 100 µM | U-251 > 100 µM | UO-31 > 100 µM

Nc1ncnc2c1ncn2CCOC(c1ccccc1)P(=O)(O)O (stereo not given)
inactive: ACHN > 100 µM | HCC 2998 > 100 µM | HT-29 > 100 µM | KM12 > 100 µM | OVCAR-5 > 100 µM | OVCAR-8 > 100 µM | SK-MEL-2 > 100 µM | SK-MEL-5 > 100 µM | SK-OV-3 > 100 µM | SW-620 > 100 µM | U-251 > 100 µM | UO-31 > 100 µM

Reference: ChEMBL document CHEMBL1201862, “PubChem BioAssay data set” (2004)
